We go through four compounds from patent US20050004094A1, “Cephem compounds” (priority 2003, published 2005).

≈ marks a conversion by molar mass, not a printed value.

The assay concerns Pseudomonas aeruginosa FP 1456. Nature of the assay: In vitro antibacterial activity, two-fold agar-plate dilution method (MIC). The class given is cell-based. As to conditions: incubation at 37° C. for 20 hours; for MIC: FP1456, heart infusion agar, read-out: MIC (minimal inhibitory concentration). On the procedure: In vitro antibacterial activity was determined by the two-fold agar-plate dilution method as described below. One loopful of an overnight culture of each test strain in Trypticase-soy broth (10^6 viable cells per ml) was streaked on heart infusion agar (HI-agar) containing graded concentrations of representative test compound, and the minimal inhibitory concentration (MIC) was expressed in μg/ml after incubation at 37° C. for 20 hours.

Take `Cn1cc(CCN)c[n+]1CC1=C(C(=O)[O-])N2C(=O)[C@@H](NC(=O)/C(=N\OC(C)(C)C(=O)O)c3nsc(N)n3)[C@H]2SC1` [Compound (c), 3-{[4-(2-aminoethyl)-2-methyl-1-pyrazolio]methyl}-7β-({(2Z)-2-(5-amino-1,2,4-thiadiazol-3-yl)-2-[(l-carboxy-1-methylethoxy)imino]ethanoyl}amino)-3-cephem-4-carboxylate]: the “MIC (minimal inhibitory concentration)” value (heart infusion agar) turned out to be 2 µg/mL (≈ 3.37 µM).

As to `Cn1c(CCN)cc[n+]1CC1=C(C(=O)O)N2C(=O)[C@@H](NC(=O)/C(=N\OC(C)(C)C(=O)O)c3nsc(N)n3)[C@H]2SC1.O=S(=O)([O-])O` [Compound (a), 3-[3-(2-aminoethyl)-2-methyl-1-pyrazolio]methyl-7β-[(Z)-2-(5-amino-1,2,4-thiadiazol-3-yl)-2-(1-carboxy-1-methylethoxyimino)acetamido]-3-cephem-4-carboxylic acid hydrogen sulfate], the MIC came to 1 µg/mL.

Consider `CC(C)(O/N=C(\C(=O)N[C@@H]1C(=O)N2C(C(=O)[O-])=C(C[n+]3ccccc3)CS[C@H]12)c1csc(N)n1)C(=O)O` [Ceftazidime, reference compound], for which the MIC stood at 32 µg/mL (≈ 58.5 µM). Turning to `Cn1c(CCNC(=N)N)cc[n+]1CC1=C(C(=O)[O-])N2C(=O)[C@@H](NC(=O)/C(=N\OC(C)(C)C(=O)O)c3nsc(N)n3)[C@H]2SC1` [Compound (b), 3-{[3-(2-{[amino(imino)methyl]amino}ethyl)-2-methyl-1-pyrazolio]methyl}-7β-({(2Z)-2-(5-amino-1,2,4-thiadiazol-3-yl)-2-[(1-carboxy-1-methylethoxy)imino]ethanoyl}-amino)-3-cephem-4-carboxylate], the MIC came to 2 µg/mL (≈ 3.15 µM).
